Experimental data taken from patent publication US20240368150A1 (Hoffmann-La Roche Inc., priority 2021, published 2024).
Where two headings read alike, the source gives them in different places.

What was measured:
primary human T-cells [1] = assay: Proliferation assay after 5 days (CellTiter-Glo, CD3 stimulation; PBS counter screen); format: cell-based; details: Homo sapiens, T-cell, 120 h, CD3 stimulation; for Emax: 5 days, normalized to reference compound A1 as stimulator control = 100%, DMSO neutral control, read-out: Emax proliferation (% activation); for EC50: primary human T-cells, CellTiter-Glo after 5 days, EC50 of fitted sigmoidal curve, read-out: Tcell Proliferation CD3 EC50
Outline: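 After compound addition to medium-only plates, cells are cultured 5 days, equilibrated to room temperature, mixed with an equal volume of CellTiter-Glo 2.0 and rocked 15 min before luminescence is read. Signal reflects ATP content, taken as proportional to cell number.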

primary human T-cells [2] = system: primary human T-cells

In the case of CC(=O)N1CCC(C)(c2nnc(-c3cc4c(cc3F)S(=O)(=O)C[C@H](N)C(=O)N4Cc3ccc(Cl)cc3)o2)CC1 [Example 169, (3R)-7-[5-(1-acetyl-4-methyl-4-piperidyl)-1,3,4-oxadiazol-2-yl]-3-amino-5-[(4-chlorophenyl)methyl]-8-fluoro-1,1-dioxo-2,3-dihydro-1λ^6,5-benzothiazepin-4-one], the Emax (primary human T-cells [1]) is reported as 95%, the EC50 (primary human T-cells [1]) is reported as 2470 nM and the EC50 (primary human T-cells [2]) is reported as 3340 nM.
CC1(c2nnc(-c3cc4c(cc3F)S(=O)(=O)C[C@H](N)C(=O)N4Cc3ccc(Cl)cc3)o2)CCN(S(C)(=O)=O)CC1 [Example 170, (3R)-3-amino-5-[(4-chlorophenyl)methyl]-8-fluoro-7-[5-(4-methyl-1-methylsulfonyl-4-piperidyl)-1,3,4-oxadiazol-2-yl]-1,1-dioxo-2,3-dihydro-1λ^6,5-benzothiazepin-4-one] gave an Emax (primary human T-cells [1]) of 97%, an EC50 (primary human T-cells [1]) of 1500 nM and an EC50 (primary human T-cells [2]) of 405 nM.
COC(=O)N1CC(c2nnc(-c3cc4c(cc3F)S(=O)(=O)C[C@H](N)C(=O)N4Cc3ccc(Cl)cc3)o2)C1 [Example 172, methyl 3-[5-[(3R)-3-amino-5-[(4-chlorophenyl)methyl]-8-fluoro-1,1,4-trioxo-2,3-dihydro-1λ^6,5-benzothiazepin-7-yl]-1,3,4-oxadiazol-2-yl]azetidine-1-carboxylate] showed an Emax (primary human T-cells [1]) of 190%, an EC50 (primary human T-cells [1]) of 2940 nM and an EC50 (primary human T-cells [2]) of 1670 nM.
CC(=O)N1CC2CC(c3nnc(-c4cc5c(cc4F)S(=O)(=O)C[C@H](N)C(=O)N5Cc4ccc(Cl)cc4)o3)(C2)C1 [Example 173, (3R)-7-[5-(3-acetyl-3-azabicyclo[3.1.1]heptan-1-yl)-1,3,4-oxadiazol-2-yl]-3-amino-5-1[(4-chlorophenyl)methyl]-8-fluoro-1,1-dioxo-2,3-dihydro-1λ^6,5-benzothiazepin-4-one] gave an Emax (primary human T-cells [1]) of 89%, an EC50 (primary human T-cells [1]) of 596 nM and an EC50 (primary human T-cells [2]) of 2180 nM.
CS(=O)(=O)N1CC2CC(c3nnc(-c4cc5c(cc4F)S(=O)(=O)C[C@H](N)C(=O)N5Cc4ccc(Cl)cc4)o3)(C2)C1 [Example 174, (3R)-3-amino-5-[(4-chlorophenyl)methyl]-8-fluoro-7-[5-(3-methylsulfonyl-3-azabicyclo[3.1.1]heptan-1-yl)-1,3,4-oxadiazol-2-yl]-1,1-dioxo-2,3-dihydro-1λ^6,5-benzothiazepin-4-one] gave an Emax (primary human T-cells [1]) of 93%, an EC50 (primary human T-cells [1]) of 4460 nM and an EC50 (primary human T-cells [2]) of 2190 nM.
With CC(=O)N1CC(c2nnc(-c3cc4c(cc3F)S(=O)(=O)C[C@H](N)C(=O)N4Cc3ccc(Cl)cc3)o2)C2(CC2)C1 (stereo partly drawn) [Example 175, (3R)-7-[5-(5-acetyl-5-azaspiro[2.4]heptan-7-yl)-1,3,4-oxadiazol-2-yl]-3-amino-5-[(4-chlorophenyl)methyl]-8-fluoro-1,1-dioxo-2,3-dihydro-1λ^6,5-benzothiazepin-4-one] the Emax (primary human T-cells [1]) was 62%, the EC50 (primary human T-cells [1]) was 7040 nM and the EC50 (primary human T-cells [2]) was > 10000 nM.
Work on CS(=O)(=O)N1CC(c2nnc(-c3cc4c(cc3F)S(=O)(=O)C[C@H](N)C(=O)N4Cc3ccc(Cl)cc3)o2)C2(CC2)C1 (stereo partly drawn) [Example 176, (3R)-3-amino-5-[(4-chlorophenyl)methyl]-8-fluoro-7-[5-(5-methylsulfonyl-5-azaspiro[2.4]heptan-7-yl)-1,3,4-oxadiazol-2-yl]-1,1-dioxo-2,3-dihydro-1λ^6,5-benzothiazepin-4-one] yielded an Emax (primary human T-cells [1]) of 70%, an EC50 (primary human T-cells [1]) of 4280 nM and an EC50 (primary human T-cells [2]) of 2510 nM.
With COC(=O)N1CC(c2nnc(-c3cc4c(cc3F)S(=O)(=O)C[C@H](N)C(=O)N4Cc3ccc(Cl)cc3)o2)C2(CC2)C1 (stereo partly drawn) [Example 177, methyl 7-[5-[(3R)-3-amino-5-[(4-chlorophenyl)methyl]-8-fluoro-1,1,4-trioxo-2,3-dihydro-1λ^6,5-benzothiazepin-7-yl]-1,3,4-oxadiazol-2-yl]-5-azaspiro[2.4]heptane-5-carboxylate] the Emax (primary human T-cells [1]) was 68%, the EC50 (primary human T-cells [1]) was 788 nM and the EC50 (primary human T-cells [2]) was 1440 nM.
With COC(=O)N1CCC2CC2(c2nnc(-c3cc4c(cc3F)S(=O)(=O)C[C@H](N)C(=O)N4Cc3ccc(Cl)cc3)o2)C1 (stereo partly drawn) [Example 178, methyl 1-[5-[(3R)-3-amino-5-[(4-chlorophenyl)methyl]-8-fluoro-1,1,4-trioxo-2,3-dihydro-1λ^6,5-benzothiazepin-7-yl]-1,3,4-oxadiazol-2-yl]-3-azabicyclo[4.1.0]heptane-3-carboxylate] the Emax (primary human T-cells [1]) was 105%, the EC50 (primary human T-cells [1]) was 206 nM and the EC50 (primary human T-cells [2]) was 333 nM.
CS(=O)(=O)N1CCC2CC2(c2nnc(-c3cc4c(cc3F)S(=O)(=O)C[C@H](N)C(=O)N4Cc3ccc(Cl)cc3)o2)C1 (stereo partly drawn) [Example 179, (3R)-3-amino-5-[(4-chlorophenyl)methyl]-8-fluoro-7-[5-(3-methylsulfonyl-3-azabicyclo[4.1.0]heptan-1-yl)-1,3,4-oxadiazol-2-yl]-1,1-dioxo-2,3-dihydro-1λ^6,5-benzothiazepin-4-one] was tested, and the Emax (primary human T-cells [1]) was 80%, the EC50 (primary human T-cells [1]) was 1580 nM and the EC50 (primary human T-cells [2]) was 335 nM.
CC(=O)N1CCC2CC2(c2nnc(-c3cc4c(cc3F)S(=O)(=O)C[C@H](N)C(=O)N4Cc3ccc(Cl)cc3)o2)C1 (stereo partly drawn) [Example 180, (3R)-7-[5-(3-acetyl-3-azabicyclo[4.1.0]heptan-1-yl)-1,3,4-oxadiazol-2-yl]-3-amino-5-[(4-chlorophenyl)methyl]-8-fluoro-1,1-dioxo-2,3-dihydro-1λ^6,5-benzothiazepin-4-one] showed an Emax (primary human T-cells [1]) of 103%, an EC50 (primary human T-cells [1]) of 5710 nM and an EC50 (primary human T-cells [2]) of 2380 nM.
CS(=O)(=O)N1CC2CC2(c2nnc(-c3cc4c(cc3F)S(=O)(=O)C[C@H](N)C(=O)N4Cc3ccc(Cl)cc3)o2)C1 (stereo partly drawn) [Example 181, (3R)-3-amino-5-[(4-chlorophenyl)methyl]-8-fluoro-7-[5-(3-methylsulfonyl-3-azabicyclo[3.1.0]hexan-1-yl)-1,3,4-oxadiazol-2-yl]-1,1-dioxo-2,3-dihydro--benzothiazepin-4-one] gave an Emax (primary human T-cells [1]) of 107%, an EC50 (primary human T-cells [1]) of 7830 nM and an EC50 (primary human T-cells [2]) of 1990 nM.
CC(=O)N1CC2CC2(c2nnc(-c3cc4c(cc3F)S(=O)(=O)C[C@H](N)C(=O)N4Cc3ccc(Cl)cc3)o2)C1 (stereo partly drawn) [Example 182, (3R)-7-[5-(3-acetyl-3-azabicyclo[3.1.0]hexan-1-yl)-1,3,4-oxadiazol-2-yl]-3-amino-5-[(4-chlorophenyl)methyl]-8-fluoro-1,1-dioxo-2,3-dihydro-1λ^6,5-benzothiazepin-4-one] was tested, and the Emax (primary human T-cells [1]) was 38%, the EC50 (primary human T-cells [1]) was > 10000 nM and the EC50 (primary human T-cells [2]) was 1590 nM.
Work on COC(=O)N1CC2CC2(c2nnc(-c3cc4c(cc3F)S(=O)(=O)C[C@H](N)C(=O)N4Cc3ccc(Cl)cc3)o2)C1 (stereo partly drawn) [Example 183, methyl 1-[5-[(3R)-3-amino-5-[(4-chlorophenyl)methyl]-8-fluoro-1,1,4-trioxo-2,3-dihydro-1λ^6,5-benzothiazepin-7-yl]-1,3,4-oxadiazol-2-yl]-3-azabicyclo[3.1.0]hexane-3-carboxylate] yielded an Emax (primary human T-cells [1]) of 131%, an EC50 (primary human T-cells [1]) of 336 nM and an EC50 (primary human T-cells [2]) of 43 nM.
With N[C@H]1CS(=O)(=O)c2cc(F)c(-c3nnc(C(F)(F)C(F)(F)F)o3)cc2N(Cc2ccc(Cl)cc2)C1=O [Example 185, (3R)-3-amino-5-[(4-chlorophenyl)methyl]-8-fluoro-1,1-dioxo-7-[5-(1,1,2,2,2-pentafluoroethyl)-1,3,4-oxadiazol-2-yl]-2,3-dihydro-1λ^6,5-benzothiazepin-4-one] the Emax (primary human T-cells [1]) was 13%, the EC50 (primary human T-cells [1]) was > 10000 nM and the EC50 (primary human T-cells [2]) was 4930 nM.
In the case of CC(C)(CO)c1nnc(-c2cc3c(cc2F)S(=O)(=O)C[C@H](N)C(=O)N3Cc2ccc(C#N)cc2)o1 [Example 188, 4-[[(3R)-3-amino-8-fluoro-7-[5-(2-hydroxy-1,1-dimethyl-ethyl)-1,3,4-oxadiazol-2-yl]-1,1,4-trioxo-2,3-dihydro-1λ^6,5-benzothiazepin-5-yl]methyl]benzonitrile], the Emax (primary human T-cells [1]) is reported as 29%, the EC50 (primary human T-cells [1]) is reported as > 10000 nM and the EC50 (primary human T-cells [2]) is reported as 3180 nM.
In the case of CC(C)(C)c1nnc(-c2cc3c(cc2F)S(=O)(=O)C[C@H](N)C(=O)N3Cc2ccc(OCCCCCCCCCCCNC(=O)CCC3=CC4=Cc5ccc(-c6ccc[nH]6)n5[B-](F)(F)[N+]4=C3)cc2)o1 [Example 189, 3-[2,2-difluoro-12-(1H-pyrrol-2-yl)-1-aza-3-azonia-2-boranuidatricyclo[7.3.0.03,7]dodeca-3,5,7,9,11-pentaen-5-yl]-N-[11-[4-[[(3R)-3-amino-7-(5-tert-butyl-1,3,4-oxadiazol-2-yl)-8-fluoro-1,1,4-trioxo-2,3-dihydro-1λ^6,5-benzothiazepin-5-yl]methyl]phenoxy]undecyl]propanamide], the Emax (primary human T-cells [1]) is reported as 134%, the EC50 (primary human T-cells [1]) is reported as 680 nM and the EC50 (primary human T-cells [2]) is reported as > 2730 nM.
With C[C@@H]1[C@H](N)C(=O)N(Cc2ccc(Cl)cc2)c2cc(-c3nnc(C(C)(C)C)o3)c(F)cc2S1(=O)=O [Example 190, (2R,3R)-3-amino-7-(5-tert-butyl-1,3,4-oxadiazol-2-yl)-5-[(4-chlorophenyl)methyl]-8-fluoro-2-methyl-1,1-dioxo-2,3-dihydro-1λ^6,5-benzothiazepin-4-one] the Emax (primary human T-cells [1]) was 114%, the EC50 (primary human T-cells [1]) was 1160 nM and the EC50 (primary human T-cells [2]) was 1640 nM.
Compound N[C@H]1CS(=O)(=O)c2cc(F)c(-c3nnc(N4CCC4)o3)cc2N(Cc2ccc(Cl)cc2)C1=O [Example 191, (3R)-3-amino-7-[5-(azetidin-1-yl)-1,3,4-oxadiazol-2-yl]-5-[(4-chlorophenyl)methyl]-8-fluoro-1,1-dioxo-2,3-dihydro-1λ^6,5-benzothiazepin-4-one] has an Emax (primary human T-cells [1]) of 184%, an EC50 (primary human T-cells [1]) of 1280 nM and an EC50 (primary human T-cells [2]) of 11400 nM.
With N[C@H]1CS(=O)(=O)c2cc(F)c(-c3noc(N4CCOC5CC54)n3)cc2N(Cc2ccc(Cl)cc2)C1=O (stereo partly drawn) [Example 192, (3R)-3-amino-5-[(4-chlorophenyl)methyl]-8-fluoro-7-[5-(2-oxa-5-azabicyclo[4.1.0]heptan-5-yl)-1,2,4-oxadiazol-3-yl]-1,1-dioxo-2,3-dihydro-1λ^6,5-benzothiazepin-4-one] the Emax (primary human T-cells [1]) was 110%, the EC50 (primary human T-cells [1]) was 100 nM and the EC50 (primary human T-cells [2]) was 125 nM.
